Legend:
[1] = target: T1, USP8 Rhod domain (Homo sapiens, UniProt P40818); assay: SPOT array of predicted peptides from known interactors, USP8 Rhod domain; assay type: binding; settings: Rhod-Peptide screening, SPOT array of predicted peptides; KIAA1614 positive control = 100
T1 construct: USP8 Rhod (174–317) (UniProt: P40818); GST (cleaved yes); made in house; host or cells: Escherichia coli BL21-Gold (DE3)
T1 sequence (P40818 174-317): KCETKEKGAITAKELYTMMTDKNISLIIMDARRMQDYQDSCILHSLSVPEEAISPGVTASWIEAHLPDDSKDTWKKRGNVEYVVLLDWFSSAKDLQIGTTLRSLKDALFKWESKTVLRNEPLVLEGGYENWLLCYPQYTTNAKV
Source text: The results therefore support that the USP8 Rhod domain binds to two distinct types of motifs (Fig. 4A, B). We used the motifs to scan for matching motifs in previously reported interactors using the SLiMSearch algorithm (Supplementary Table S8 A). As there was no clear match for the TET3-type motif except from only one hit, we focused on the KIAA1614-type motif. […] Both TP63 and USP21 are previously reported USP8 substrates, and the interactions may potentially contribute to substrate targeting. […] As the SHANK3 peptides (351-[…]−365 and 392-[…]−406) are closely located in the primary structure of SHANK3, it is tempting to speculate that both motifs contribute to the interactions between the full-length proteins by increasing the local concentration of binding motifs. […] Taken together, we find that the USP8 Rhod domain is a peptide binding domain that can be bound by peptides of two distinct types of motifs, with the Rx[LI]xGxxxPxxL motif and variants thereof being found in known USP8 substrates.
SPOT array alanine scanning of peptides was designed, and cellulose-bound peptides were synthesized using Fluorenylmethyloxycarbonyl (Fmoc) solid phase synthesis with a MultiPep synthesizer (INTAVIS Peptide Services, Tübingen, Germany). The membranes of predicted peptides were purchased by JPT Peptide Technologies (Berlin, Germany). The membranes were incubated with blocking buffer containing 5% skim milk in TBST (50 mM Tris, 150 mM NaCl pH 7.5, 0.05% Tween-20) for two hours at room temperature. The blocked membranes were incubated with GST-tagged proteins (100 µM for MIT domain and 150 µM for the Rhodanese domain) in blocking buffer overnight at 4 °C. After rinsed with TBST the membranes were incubated with HRP-conjugated anti-GST antibody (Cytiva, RPN1236; 1:3000 dilution) in blocking buffer for 1 h at 4 °C and subsequently rinsed with TBST to remove any excess antibody. The ECL reagent (Clarity Max Western ECL substrate, 1705062, BioRad) was used for chemiluminescence read-out with the ChemiDoc Imaging system (BioRad). The images were analysed with Fiji (ImageJ2 version 2.9.0). SLiMSearch4 was used to design the peptide arrays with known interactors predicted to contain the motifs. The background signal intensity was subtracted, and the corrected signal intensities were normalized to the positive control and presented as percentage.

[2] = system: USP8 MIT domain; assay: SPOT array of predicted peptides from known interactors, USP8 MIT domain; assay type: binding, human; settings: for Percentage (%) normalized to highest intensity and corrected for background: SPOT array, GST-tagged MIT 100 µM, overnight 4 °C, chemiluminescence, highest intensity = DNAJB6; for Percentage (%): Supplementary Fig. 4B, normalized to the highest intensity and corrected for background
Source text: To further assess the SLiM-based interactions of the USP8 MIT domain, we designed a peptide array tiling 24 potential binding sites in previously reported USP8 interactors. We used SLiMSearch to search for peptides that contain shorter or longer matches to the motif (Supplementary Table S4A). […] The DNAJB6_118 - 130 peptide was predicted as a binder based on a partial DFx{2,3}R motif. The DNAJB6-USP8 interaction is supported by previous GST-pulldown experiments and colocalization of the two proteins in male mouse germ cells, and the interaction is thought to be of importance to the protein quality control to yield functional spermatozoa. In the case of the CDH1_863 - 877 peptide it was predicted as USP8 MIT ligand based on the presence of an RFxxL motif. The previous support of the CDH1-USP8 interaction is based on proximity labelling mass spectrometry, and our results thus provide evidence for a binary interaction between the two proteins and define a binding site. To confirm that the motifs used to predict the interactions were of importance for binding we designed an alanine scanning peptide SPOT array analysis of the DNAJB6_118 - 130 and the CDH1_863 - 877 peptides. […] In summary, we find that the USP8 MIT domain binds to a MIM1-like motif that can be expressed by [[…]], as well as degenerate variants thereof. […] The membranes of predicted peptides were purchased by JPT Peptide Technologies (Berlin, Germany). The membranes were incubated with blocking buffer containing 5% skim milk in TBST (50 mM Tris, 150 mM NaCl pH 7.5, 0.05% Tween-20) for two hours at room temperature. The blocked membranes were incubated with GST-tagged proteins (100 μM for MIT domain and 150 μM for the Rhodanese domain) in blocking buffer overnight at 4 °C. After rinsed with TBST the membranes were incubated with HRP-conjugated anti-GST antibody (Cytiva, RPN1236; 1:3000 dilution) in blocking buffer for 1 h at 4 °C and subsequently rinsed with TBST to remove any excess antibody. The ECL reagent (Clarity Max Western ECL substrate, 1705062, BioRad) was used for chemiluminescence read-out with the ChemiDoc Imaging system (BioRad). The images were analysed with Fiji (ImageJ2 version 2.9.0). […] used to design the peptide arrays with known interactors predicted to contain the motifs. The background signal intensity was subtracted, and the corrected signal intensities were normalized to the positive control and presented as percentage.

[3] = system: USP8 MIT domain; assay: Proteomic peptide-phage display (ProP-PD) selection against USP8 MIT domain; assay type: binding, human; design: Confidence: scale not given here
Experimental: We explored the peptide-binding of the USP8 MIT domain by using the purified GST-tagged MIT domain as bait in proteomic peptide-phage display (ProP-PD) selections and a library designed to display the predicted unstructured regions of the human proteome. The peptide-coding regions of the binding-enriched phage pools were analysed by next-generation sequencing (NGS). After filtering for high confidence ligands, ten ligands remained (Fig. 1B; Supplementary Table S1). None of the ten identified protein-protein interactions had been previously reported, based on comparison with the information available in IntAct, HIPPIE and BioGrid (February 2025). Of the USP8 interacting proteins found, the D site-binding protein (DBP), which is a clock-controlled transcription factor, appears as an interesting ligand as USP8 has been reported to be involved in controlling the circadian rhythm. Also, the CCDC88A-encoded protein Girdin is an interactor of potential biological relevance as it is a scaffolding protein involved in the EGFR pathway which USP8 is known to regulate. At the motif level, there was no shared consensus motif among the ten peptide ligands. However, by manual inspection we noticed that four of the peptides contained a shared [LI]xxR[IY]xxL sequence, which appears to be a variation of the [DE]xxLxxRLxxL[KR] MIM1 motif described in the Eukaryotic Linear Motif resource (ELM) (Fig. 1B). We performed a SPOT array alanine scanning analysis in which peptides are synthesised on a membrane, and where each amino acid position of the peptide is mutated to alanine (or glycine if alanine is in the wild type peptide) to evaluate the effect of the amino acid residues in binding. We tested two peptides containing the apparent MIM1-like motif, one from Girdin (Girdin1192 − 1207) and one from the histone-lysine N-methyltransferase SETD1B (SETD1B492 − 507). […] AlphaFold3 (AF3) modelling of the four peptides with the variant MIM1 motif and the MIT domain docked the peptides with high confidence (ipTM scores: HIVEP1_741 − 756: 0.87, Girdin1192 − 1207: 0.85, MLPH481 − 496: 0.82, SETD1B492 − 507: 0.75) at the expected MIM1 binding pocket (Fig. 1D). […] However, the USP8 MIT selection was dominated (more than 94% of NGS counts) by two peptides that lack an apparent MIM1 motif. The two peptides were from the EF-hand calcium-binding domain-containing protein 12 (EFCAB12_1 − 16: […]) and from DBP (DBP116 − 131: […]) (Fig. 1B). […] In comparison to this, the EFCAB12_1 − 16 peptide shares a potential Dx[YF]xxxH[SG] motif with the DBP116 − 131 (Fig. 1B). […] The AF3 model of DBP116 − 131 peptide supports the interaction of D120 of the DBP116 − 131 peptide with the residues K74 and N71 in the MIT domain (Fig. 1G), emphasizing the significance of the aspartic acid at this position. […] Of them, two peptides (SYNE2_853 − 868 and PKNOX1_56 − 71) where placed in the same binding site as the Girdin and DBP peptides with high confidences by AF3 modelling (ipTM 0.92 and 0.74; Supplementary Fig. S3).
Four rounds of phage selections were carried out using the second generation human disorderome library or the constructed deep mutational scanning library. At least three individual replicates were used for each bait protein. 10 µg of GST-tagged proteins or GST control (diluted in PBS from the stock of proteins kept in the purification elution buffer) were immobilized in 100 µL PBS on a 96-well MaxiSorp (Nunc) plate overnight at 4 °C. The plates were incubated with blocking buffer (with 0.5% BSA in PBS) for 1 h at 4 °C followed by washing with 0.05% Tween 20 in PBS four times. The naïve phage library (10^11 CFU) was diluted in 1/5th volume PEG/NaCl (20% PEG-8000, 0.4 M NaCl) and 1X PBS, incubated on ice for 10 min and centrifuged at 10,000 [drawing 3] g for 10 min. The pellet was resuspended in the volume of PBS (100 µL/ well). […]

AKPPGPGVLMIHPPG
Percentage (%) normalized to highest intensity and corrected for background [1]: -1.54%

AQPLTPGVLMVQPAA
Percentage (%) normalized to highest intensity and corrected for background [1]: -0.828%

AQPPAPGVLMAQPLT
Percentage (%) normalized to highest intensity and corrected for background [1]: -1.21%

AQPPTPGVLMVHPSA
Percentage (%) normalized to highest intensity and corrected for background [1]: -1.3%

ASQAVPTFLMATAAA
Percentage (%) normalized to highest intensity and corrected for background [1]: -0.581%

CGNQERKLEGSINDI
Percentage (%) normalized to highest intensity and corrected for background [1]: 11%

DPSAPPSLLLLLLAQ
Percentage (%) normalized to highest intensity and corrected for background [1]: 0.93%

DPVESRGLPGPEDDK
Percentage (%) normalized to highest intensity and corrected for background [1]: -0.521%

EINLQRNIAGKVVTP
Percentage (%) normalized to highest intensity and corrected for background [1]: -1.5%

FDQPHPQGLLPCQPQ
Percentage (%) normalized to highest intensity and corrected for background [1]: 4.4%

GKPPTPGVLMVHPPP
Percentage (%) normalized to highest intensity and corrected for background [1]: -1.22%

GMERVLGGLSSPLRLL [KIAA1614 Positive control]
Percentage (%) normalized to highest intensity and corrected for background [1]: 100%

GPSTSRILSGWEGPS
Percentage (%) normalized to highest intensity and corrected for background [1]: -0.117%

GVSCYRGLTGFGSRS
Percentage (%) normalized to highest intensity and corrected for background [1]: 52%

HAVSSPDPLLCSDVT
Percentage (%) normalized to highest intensity and corrected for background [1]: -0.0499%

HEFSSPSHLLRTPSS
Percentage (%) normalized to highest intensity and corrected for background [1]: 45%

HPNTPRGLSGWEGPS
Percentage (%) normalized to highest intensity and corrected for background [1]: 2.19%

IATYRRLLEGEEHRL
Percentage (%) normalized to highest intensity and corrected for background [1]: 5.44%

MAQALPWLLLWMGAG
Percentage (%) normalized to highest intensity and corrected for background [1]: 1.42%

MPSGSRLRLVELGLGL [Random KIAA1614 Negative control]
Percentage (%) normalized to highest intensity and corrected for background [1]: 3.69%

PEKGARSLAGPPPHF
Percentage (%) normalized to highest intensity and corrected for background [1]: -1.37%

PGPPYPPQLMTPSKL
Percentage (%) normalized to highest intensity and corrected for background [1]: -0.836%

PIPSSSPPPLSSPL
Percentage (%) normalized to highest intensity and corrected for background [1]: -1.42%

PKPPRPASLLRHAPH
Percentage (%) normalized to highest intensity and corrected for background [1]: 5%

PRPTAPKPLLPRREE
Percentage (%) normalized to highest intensity and corrected for background [1]: 0.0399%

RPHDIFRQRKQNT [VIRMA, Protein virilizer homolog peptide]
Percentage (%) normalized to highest intensity and corrected for background [2]: 6.6% | Percentage (%) [2]: 7%

SEENGLPLLVLPPP [SHANK1 A11, SHANK1 peptide, array position A11]
Percentage (%) normalized to highest intensity and corrected for background [2]: -5.69% | Percentage (%) [2]: -6%

SGETDLKLLEESIA [NR3C1, Glucocorticoid receptor peptide]
Percentage (%) normalized to highest intensity and corrected for background [2]: -4.47% | Percentage (%) [2]: -4%

SQKELESYMMRAQQLL [SYNE2_853 − 868, Nesprin-2 peptide]
NGS counts (%) ([3]; ProP-PD, human disorderome library, GST-tagged MIT bait, four rounds of selection, percent of NGS counts associated with each peptide, Fig. 1B): 0.43% | max_counts ([3]; Total NGS counts): 21 | Confidence ([3]; calculated based on four metrics: overlapping peptides, replicated peptides, motif match, peptide counts): 2 | Counts ([3]; fraction of NGS counts for a selection): 0.0007925 | Promiscuity ([3]; number of baits selections where the peptide has been observed, calculated on the domain level): 1 | Replicates ([3]; number of screens against the bait protein in which the peptide has been found): 3 | Specificity ([3]; proportion for the current bait of the total NGS read counts of the peptide for all baits screened with this library): 1 | Percentage (%) normalized to highest intensity and corrected for background [2]: -4% | Percentage (%) [2]: -4%

SRGLQLLLLSCAYS [CD83, CD83 antigen peptide]
Percentage (%) normalized to highest intensity and corrected for background [2]: 5.58% | Percentage (%) [2]: 6%

TEQETLALLEVKRS [TMEM79, Transmembrane protein 79 peptide]
Percentage (%) normalized to highest intensity and corrected for background [2]: -4% | Percentage (%) [2]: -4%
